{"source": "patent US20110152362A1", "about": "“METHODS OF TREATING EPILEPTOGENESIS AND EPILEPSY” (priority 2004, published 2011)", "test": "Example 3 study 2: repeated oral dose (q12h, 1 wk) pharmacokinetics in healthy men", "format": "in vivo, human", "protocol": "Two single-center, placebo-controlled, double-blind, ascending-dose studies were conducted in healthy men ≧18 and ≦45 yrs. In study 1 (N=70), subjects were randomly assigned to a single dose of Test Compound (TC) or placebo. Escalated doses were received as 100, 250, 400, 750, 1000, 1250, and 1500 mg. PK parameters were estimated from plasma and urine samples collected up to 3 days post dose. Study 2 (N=53) evaluated the PK of repeated doses of Test Compound (TC) in 4 dose groups (100, 250, 500, or 750 mg). Within each group, 12 subjects were assigned to q12h treatment with drug or placebo for 1 wk and were crossed over after a 14-day washout period. PK parameters were estimated from plasma and urine samples on days 1 and 7.", "key": {"[1]": {"settings": "repeated doses q12h, 100-750 mg"}}}
{"smiles": "NC(=O)OC[C@@H](O)c1ccccc1Cl", "note": "[TC]", "values": [{"measurement": "Mean CLR relative to mean oral clearance", "setting": "healthy men", "result": "< 5 % of the mean oral clearance"}, {"measurement": "Tmax at 1 wk", "setting": "male, human, plasma, oral, repeated doses q12h, 100-750 mg", "result": "1.3 to 1.8", "unit": "h"}, {"measurement": "half-life at 1 wk", "setting": "male, human, plasma, oral, repeated doses q12h, 100-750 mg, read-out: mean t1/2 at steady state", "result": "714 to 768", "unit": "min"}, {"measurement": "accumulation: Cmax and AUC0-12 on day 7 vs. day 1", "setting": "q12h administration, listed as Test Compound", "result": "about two-fold"}, {"measurement": "Steady-state Cmax and AUC0-12 dose dependence", "setting": "repeated doses 100-750 mg", "result": "increased in proportion to the dose"}, {"measurement": "mean CL/F at steady state", "setting": "[1]", "result": "3.40 to 3.78", "unit": "L/h"}, {"measurement": "time for plasma concentrations to reach steady state", "setting": "[1]", "result": "3 to 4", "unit": "days"}, {"measurement": "linearity of PK", "setting": "single (100-1500 mg) and repeated (100-750 mg bid) doses, healthy adult men", "result": "linear"}]}
